# Assay results published in patent publication US20200102264A1, “MARMELIN ANALOGS AND METHODS OF USE IN CANCER TREATMENT” (THE UNIVERSITY OF KANSAS, priority 2014, published 2020).
# pIC50: −log10 of the molar value.
# Experiments:
# Format in all cases: cell-based
# [1] = system: PanC-1 pancreatic cancer cells; assay: hexoseaminidase cell proliferation assay, PanC-1
# Experimental: (§1) Using hexoseaminidase assay, we determined the effect of the compounds on cell proliferation. […] The IC50 value at 48 hours is below 10 μM in all the cancer cell lines.
# (§2) Using hexoseaminidase assay, we determined the effect of the compounds on cell proliferation. […] The MRL16 IC50 value at 48 hours is below 0.3 μM in Colon cancer cell lines. […] Overall, the analogs can be used as chemotherapeutic agents against colon and pancreatic cancer.
# [2] = system: HCT116 colon cancer cells; assay: hexoseaminidase cell proliferation assay, HCT116
# Text: (§3) Using hexoseaminidase assay, we determined the effect of the compounds on cell proliferation. […]
# (§4) Using hexoseaminidase assay, we determined the effect of the compounds on cell proliferation. […] […] […] Overall, the analogs can be used as chemotherapeutic agents against colon and pancreatic cancer.
# SW480 colon cancer cells = assay: hexoseaminidase cell proliferation assay, SW480
# Text: as §3, §4
# [3] = system: MiaPaCa-2 pancreatic cancer cells; assay: hexoseaminidase cell proliferation assay, MiaPaCa-2
# Experimental: as §1, §2
# [4] = Homo sapiens, HCT-116, HCT116, 24 h
# [5] = Homo sapiens, HCT-116, HCT116, 48 h
# [6] = Homo sapiens, HCT-116, HCT116, 72 h
# [7] = Homo sapiens, MIA PaCa-2, MiaPaCa-2, 24 h
# [8] = Homo sapiens, MIA PaCa-2, MiaPaCa-2, 48 h
# [9] = Homo sapiens, MIA PaCa-2, MiaPaCa-2, 72 h
Structure (SMILES),"pIC50 ([1]; PanC-1, 24 h)","pIC50 ([1]; PanC-1, 48 h)","pIC50 ([1]; PanC-1, 72 h)","pIC50 ([2]; HCT116, 24 h)","pIC50 ([2]; HCT116, 48 h)","pIC50 ([2]; HCT116, 72 h)","pIC50 (SW480 colon cancer cells; SW480, 24 h)","pIC50 (SW480 colon cancer cells; SW480, 48 h)","pIC50 (SW480 colon cancer cells; SW480, 72 h)","pIC50 ([3]; MiaPaCa-2, 24 h)","pIC50 ([3]; MiaPaCa-2, 48 h)","pIC50 ([3]; MiaPaCa-2, 72 h)","pIC50 ([1]; Homo sapiens, PANC-1, 24 h)","pIC50 ([1]; Homo sapiens, PANC-1, 48 h)","pIC50 ([1]; Homo sapiens, PANC-1, 72 h)","pIC50 [2, 4]","pIC50 [2, 5]","pIC50 [2, 6]","pIC50 (SW480 colon cancer cells; Homo sapiens, SW480, 24 h)","pIC50 (SW480 colon cancer cells; Homo sapiens, SW480, 48 h)",other results
O=C(N/N=C/c1ccc(F)c(F)c1F)c1cc2ccccc2cc1O [MRL TFB],< 4.30,< 4.30,< 4.30,< 4.30,< 4.30,< 4.30,< 4.30,< 4.30,< 4.30,< 4.30,< 4.30,< 4.30,–,–,–,–,–,–,–,–,–
O=C(N/N=C/c1coc2ccccc2c1=O)c1cc2ccccc2cc1O [CMR],< 4.30,< 4.30,< 4.30,< 4.30,< 4.30,< 4.30,< 4.30,< 4.30,< 4.30,< 4.30,< 4.30,< 4.30,–,–,–,–,–,–,–,–,–
C/C(=N\NC(=O)Cc1cc2ccccc2[nH]1)c1ccc2ccccc2c1O [MRL22],–,–,–,–,–,–,–,–,–,–,–,–,< 5.00,< 5.00,< 5.00,< 5.00,< 5.00,< 5.00,< 5.00,< 5.00,"pIC50 (SW480 colon cancer cells; Homo sapiens, SW480, 72 h): < 5.00; pIC50 [3, 7]: < 5.00; pIC50 [3, 8]: < 5.00; pIC50 [3, 9]: < 5.00"
C/C(=N\NC(=O)c1cc2ccccc2cc1O)c1cc2ccccc2oc1=O [COU],–,–,–,–,–,–,–,–,–,–,–,–,< 4.30,< 4.30,< 4.30,< 4.30,< 4.30,< 4.30,< 4.30,< 4.30,"pIC50 (SW480 colon cancer cells; Homo sapiens, SW480, 72 h): < 4.30; pIC50 [3, 7]: < 4.30; pIC50 [3, 8]: < 4.30; pIC50 [3, 9]: < 4.30"
O=C(N/N=C/c1ccc2ccccc2n1)c1cc2ccccc2cc1O [QNL],–,–,–,–,–,–,–,–,–,–,–,–,< 4.30,< 4.30,< 4.30,< 4.30,< 4.30,4.70,< 4.30,< 4.30,"pIC50 (SW480 colon cancer cells; Homo sapiens, SW480, 72 h): < 4.30; pIC50 [3, 7]: < 4.30; pIC50 [3, 8]: < 4.30; pIC50 [3, 9]: 4.60"
O=C(N/N=C/c1cc(F)cc(F)c1)c1cc2ccccc2cc1O [MRL RFB],< 4.30,4.40,4.40,–,4.46,4.46,–,4.40,4.46,< 4.30,4.40,4.46,–,–,–,–,–,–,–,–,–
CC(=O)c1ccc2ccccc2c1O [MRL15],–,–,–,–,–,–,–,–,–,–,–,–,< 5.00,< 5.00,< 5.00,< 5.00,< 5.00,< 5.00,< 5.00,< 5.00,"pIC50 (SW480 colon cancer cells; Homo sapiens, SW480, 72 h): < 5.00; pIC50 [3, 7]: < 5.00; pIC50 [3, 8]: < 5.00; pIC50 [3, 9]: < 5.00"
NNC(=O)c1cc2ccccc2cc1O [MRL BDM],< 4.30,< 4.30,< 4.30,< 4.30,< 4.30,< 4.30,< 4.30,< 4.30,< 4.30,< 4.30,< 4.30,< 4.30,–,–,–,–,–,–,–,–,–
O=C(N/N=C/c1ccc(O)cc1)c1cc2ccccc2cc1O [MRL MHB],< 4.30,< 4.30,< 4.30,< 4.30,< 4.30,< 4.30,< 4.30,< 4.30,< 4.30,< 4.30,< 4.30,< 4.30,–,–,–,–,–,–,–,–,–
O=C(N/N=C/c1ccc(F)cc1)c1cc2ccccc2cc1O [MRL MFB],< 4.30,< 4.30,< 4.30,< 4.30,< 4.30,< 4.30,< 4.30,< 4.30,< 4.30,< 4.30,< 4.30,< 4.30,–,–,–,–,–,–,–,–,–
O=C(N/N=C/c1ccc(F)c(F)c1)c1cc2ccccc2cc1O [MRL DFB],< 4.30,–,4.70,< 4.30,4.60,4.66,< 4.30,4.70,4.74,< 4.30,4.60,4.77,–,–,–,–,–,–,–,–,–
